What is called IC50 is the concentration that gives 50% inhibition. Read a low IC50 as greater potency in that assay. In general, EC50 refers to the concentration that produces a half-maximal response.

Experiment [1] is filed under the species Homo sapiens. As to the kind of experiment: Selectivity ratio of IC50 for voltage-gated Na channel (unknown origin) to IC50 for human voltage-gated K channel 2.1.
The species named for experiment [2] is Homo sapiens. As to the kind of experiment: Selectivity ratio of IC50 for voltage-gated K channel (unknown origin) to human voltage-gated K channel 2.1.
Experiment [3] deals with Potassium voltage-gated channel subfamily B member 2 (Homo sapiens, UniProt Q92953). Kind of experiment: Inhibition of voltage-gated K channel 2.2 (unknown origin) by automated patch clamp assay. In general terms: In patch-clamp work, channel activity is measured electrically.
Sequence of Potassium voltage-gated channel subfamily B member 2 (Q92953 whole entry): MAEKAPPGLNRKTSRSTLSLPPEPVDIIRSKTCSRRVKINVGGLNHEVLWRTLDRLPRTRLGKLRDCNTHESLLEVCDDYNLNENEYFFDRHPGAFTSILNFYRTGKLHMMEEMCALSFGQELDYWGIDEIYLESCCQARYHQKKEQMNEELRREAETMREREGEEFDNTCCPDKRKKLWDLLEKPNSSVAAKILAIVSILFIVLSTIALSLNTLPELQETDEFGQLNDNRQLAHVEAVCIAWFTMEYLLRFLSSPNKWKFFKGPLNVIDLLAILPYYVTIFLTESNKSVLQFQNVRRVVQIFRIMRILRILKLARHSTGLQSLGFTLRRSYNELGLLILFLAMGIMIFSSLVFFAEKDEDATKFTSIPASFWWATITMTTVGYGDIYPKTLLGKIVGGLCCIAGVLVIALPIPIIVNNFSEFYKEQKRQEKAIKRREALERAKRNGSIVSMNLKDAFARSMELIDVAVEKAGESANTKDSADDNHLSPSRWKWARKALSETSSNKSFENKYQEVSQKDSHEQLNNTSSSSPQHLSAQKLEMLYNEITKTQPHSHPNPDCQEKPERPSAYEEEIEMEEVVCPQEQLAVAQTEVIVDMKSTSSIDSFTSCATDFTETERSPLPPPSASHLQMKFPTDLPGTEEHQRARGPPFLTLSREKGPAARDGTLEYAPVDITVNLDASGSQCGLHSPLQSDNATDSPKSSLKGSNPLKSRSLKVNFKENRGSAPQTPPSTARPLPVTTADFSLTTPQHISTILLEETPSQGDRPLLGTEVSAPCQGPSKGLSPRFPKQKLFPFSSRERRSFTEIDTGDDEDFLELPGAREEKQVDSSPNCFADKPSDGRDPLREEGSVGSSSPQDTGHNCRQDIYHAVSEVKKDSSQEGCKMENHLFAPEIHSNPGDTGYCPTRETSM
Experiment [4] is filed under the species Homo sapiens. As to the kind of experiment: Selectivity ratio of IC50 for voltage-gated K channel (unknown origin) to voltage-gated K channel 2.2 (unknown origin).
The species named for experiment [5] is Homo sapiens. As to the kind of experiment: Selectivity ratio of IC50 for voltage-gated Na channel (unknown origin) to IC50 for voltage-gated K channel 2.2 (unknown origin).
Experiment [6] addresses Sodium channel protein type 10 subunit alpha (Homo sapiens, UniProt Q9Y5Y9). As to the kind of experiment: Inhibition of voltage-gated Na channel 1.8 (unknown origin).
The target of experiment [7] is GABA-A receptor; alpha-3/beta-3/gamma-2 (Homo sapiens, UniProt P18507+P28472+P34903). As to the kind of experiment: Modulation of human GABAA alpha3beta3gamma2 expressed in xenopus oocytes assessed as potentiation of GABA-evoked chloride currents. It is filed as cell-based, Oocyte.
For experiment [8], the target named is GABA-A receptor; alpha-2/beta-3/gamma-2 (Homo sapiens, UniProt P18507+P28472+P47869). Kind of experiment: Modulation of human GABAA alpha2beta3gamma2 expressed in xenopus oocytes assessed as potentiation of GABA-evoked chloride currents. It counts as cell-based, Oocyte.
The target in experiment [9] is GABA-A receptor; alpha-1/beta-2/gamma-2 (Homo sapiens, UniProt P14867+P18507+P47870). Kind of experiment: Modulation of human GABA-A alpha1beta2gamma2 expressed in xenopus oocytes assessed as potentiation of GABA-evoked chloride currents. It is filed as cell-based, Oocyte.
Experiment [10] deals with Gamma-aminobutyric acid receptor subunit alpha-5/beta-3/gamma-3 (Homo sapiens, UniProt P28472+P31644+Q99928). Kind of experiment: Modulation of human GABAA alpha5beta3gamma3 expressed in xenopus oocytes assessed as potentiation of GABA-evoked chloride currents. It counts as cell-based, Oocyte.
For experiment [11], the species on record is Homo sapiens. Kind of experiment: Selectivity ratio of IC50 for human voltage-gated Na channel 1.5 to IC50 for human voltage-gated Na channel 1.3.
The target of experiment [12] is T1, Sodium channel protein type 3 subunit alpha (Homo sapiens, UniProt Q9NY46). As to the kind of experiment: Inhibition of human voltage-gated Na channel 1.3.
T1 sequence (Q9NY46 whole entry): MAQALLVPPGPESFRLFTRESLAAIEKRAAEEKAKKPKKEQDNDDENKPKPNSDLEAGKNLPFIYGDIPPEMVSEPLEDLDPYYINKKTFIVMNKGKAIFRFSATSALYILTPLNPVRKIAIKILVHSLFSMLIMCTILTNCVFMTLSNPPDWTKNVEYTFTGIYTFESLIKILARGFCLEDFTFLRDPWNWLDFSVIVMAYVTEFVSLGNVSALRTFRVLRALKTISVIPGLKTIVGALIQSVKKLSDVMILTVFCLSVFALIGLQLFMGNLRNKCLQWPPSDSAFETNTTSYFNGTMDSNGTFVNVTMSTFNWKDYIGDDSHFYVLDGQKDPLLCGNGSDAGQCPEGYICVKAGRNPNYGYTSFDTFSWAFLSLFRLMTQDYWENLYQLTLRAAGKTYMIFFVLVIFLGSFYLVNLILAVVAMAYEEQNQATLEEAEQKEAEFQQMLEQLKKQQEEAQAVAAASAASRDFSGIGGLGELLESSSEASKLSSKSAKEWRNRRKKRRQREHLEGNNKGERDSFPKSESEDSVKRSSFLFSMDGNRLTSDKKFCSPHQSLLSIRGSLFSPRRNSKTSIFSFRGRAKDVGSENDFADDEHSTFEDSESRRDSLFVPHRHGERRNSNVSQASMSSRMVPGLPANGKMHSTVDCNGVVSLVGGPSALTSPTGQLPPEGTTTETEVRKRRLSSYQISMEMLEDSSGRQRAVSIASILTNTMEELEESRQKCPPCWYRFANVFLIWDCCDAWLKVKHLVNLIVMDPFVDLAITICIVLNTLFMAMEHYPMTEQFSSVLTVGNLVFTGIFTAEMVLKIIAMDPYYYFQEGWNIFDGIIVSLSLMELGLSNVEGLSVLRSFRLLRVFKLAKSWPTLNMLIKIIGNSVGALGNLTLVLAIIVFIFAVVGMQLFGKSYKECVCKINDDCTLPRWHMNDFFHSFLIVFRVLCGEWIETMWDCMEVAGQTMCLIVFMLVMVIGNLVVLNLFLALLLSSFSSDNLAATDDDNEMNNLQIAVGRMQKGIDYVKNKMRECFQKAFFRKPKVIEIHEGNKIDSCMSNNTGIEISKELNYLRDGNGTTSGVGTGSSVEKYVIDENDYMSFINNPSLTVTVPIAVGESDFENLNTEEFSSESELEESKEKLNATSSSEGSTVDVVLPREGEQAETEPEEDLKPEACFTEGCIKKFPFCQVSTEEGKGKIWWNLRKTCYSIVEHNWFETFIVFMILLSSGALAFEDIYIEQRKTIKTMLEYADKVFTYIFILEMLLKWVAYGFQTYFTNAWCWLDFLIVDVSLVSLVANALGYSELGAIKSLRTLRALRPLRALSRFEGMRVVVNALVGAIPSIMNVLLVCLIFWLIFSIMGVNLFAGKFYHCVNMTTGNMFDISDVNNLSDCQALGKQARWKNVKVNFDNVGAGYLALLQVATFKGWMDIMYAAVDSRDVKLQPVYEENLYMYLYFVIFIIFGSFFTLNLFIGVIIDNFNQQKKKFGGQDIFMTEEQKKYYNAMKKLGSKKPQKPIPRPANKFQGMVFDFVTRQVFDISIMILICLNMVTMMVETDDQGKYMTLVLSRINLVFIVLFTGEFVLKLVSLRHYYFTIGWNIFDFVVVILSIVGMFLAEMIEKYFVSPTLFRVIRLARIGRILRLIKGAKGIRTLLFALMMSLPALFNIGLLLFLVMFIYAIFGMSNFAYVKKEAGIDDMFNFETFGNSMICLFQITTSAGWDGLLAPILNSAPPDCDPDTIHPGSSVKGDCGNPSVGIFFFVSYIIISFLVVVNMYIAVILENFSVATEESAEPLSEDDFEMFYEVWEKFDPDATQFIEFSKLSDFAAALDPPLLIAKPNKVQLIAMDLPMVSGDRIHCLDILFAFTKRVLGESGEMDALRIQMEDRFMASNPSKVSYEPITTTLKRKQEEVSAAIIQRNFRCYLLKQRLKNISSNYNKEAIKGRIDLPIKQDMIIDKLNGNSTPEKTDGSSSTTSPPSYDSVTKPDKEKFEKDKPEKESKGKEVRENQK
For another experiment, the target named is Glutamate receptor 1 (Homo sapiens, UniProt P42261). Kind of experiment: Agonist activity at GluA1 (unknown origin).
In experiment [13] the target is T2, Sodium channel protein type 3 subunit alpha (Rattus norvegicus, UniProt P08104). Kind of experiment: Inhibition of rat voltage-gated Na channel 1.3 in dorsal root ganglion neurons by patch clamp technique. It is filed as tissue-based.
Experiment [14] deals with Sodium channel protein type 1 subunit alpha (Rattus norvegicus, UniProt P04774). Kind of experiment: Inhibition of rat voltage-gated Na channel 1.1 in dorsal root ganglion neurons by patch clamp technique. It counts as tissue-based.
For experiment [15], the target named is T2, Sodium channel protein type 3 subunit alpha. As to the kind of experiment: Binding affinity to rat inactivated voltage-gated Na channel 1.3 expressed in human HEK293 cells by patch-clamp technique. It counts as cell-based.
Experiment [16] addresses T3, Sodium channel protein type 9 subunit alpha (Homo sapiens, UniProt Q15858). As to the kind of experiment: Binding affinity to human inactivated voltage-gated Na channel 1.7 expressed in HEK293 cells by patch-clamp technique. It is filed as cell-based.
The target of experiment [17] is Sodium channel protein type 10 subunit alpha (Rattus norvegicus, UniProt Q62968). As to the kind of experiment: Binding affinity to voltage-gated Na channel 1.8 in Sprague-Dawley rat L4/L5 DRG neurons by patch-clamp technique.
For experiment [18], the target named is T4, Sodium channel protein type 2 subunit alpha (Homo sapiens, UniProt Q99250). Kind of experiment: Inhibition of human voltage-gated Na channel 1.2 by cell based patch clamp technique.
The target in experiment [19] is Sodium channel protein type 5 subunit alpha (Homo sapiens, UniProt Q14524). As to the kind of experiment: Inhibition of human voltage-gated Na channel 1.5 by cell based patch clamp technique.
The target in experiment [20] is T3, Sodium channel protein type 9 subunit alpha. As to the kind of experiment: Inhibition of human voltage-gated Na channel 1.7 by cell based patch clamp technique.
In experiment [21] the target is Potassium voltage-gated channel subfamily KQT member 1 (Homo sapiens, UniProt P51787). As to the kind of experiment: Inhibition of voltage-gated K channel 7.1 (unknown origin).
Experiment [22] has as its target Sodium channel protein type 4 subunit alpha (Homo sapiens, UniProt P35499). As to the kind of experiment: Inhibition of voltage-gated Na channel 1.4 (unknown origin).
For experiment [23], the target named is T4, Sodium channel protein type 2 subunit alpha. As to the kind of experiment: Inhibition of voltage-gated Na channel 1.2 (unknown origin).
Experiment [24] deals with Voltage-gated inwardly rectifying potassium channel KCNH2 (Homo sapiens, UniProt Q12809). As to the kind of experiment: Inhibition of human ERG channel.
The target in experiment [25] is T3, Sodium channel protein type 9 subunit alpha. As to the kind of experiment: Inhibition of voltage-gated Na channel 1.7 (unknown origin).
For experiment [26], the target named is Sodium channel protein type 8 subunit alpha (Homo sapiens, UniProt Q9UQD0). As to the kind of experiment: Inhibition of voltage-gated Na channel 1.6 (unknown origin).
The target in experiment [27] is T1, Sodium channel protein type 3 subunit alpha. As to the kind of experiment: Inhibition of voltage-gated Na channel 1.3 (unknown origin).
In experiment [28] the target is Potassium voltage-gated channel subfamily A member 5 (Homo sapiens, UniProt P22460). Kind of experiment: Inhibition of voltage-gated K channel 1.5 (unknown origin).
Experiment [29] concerns the target Sodium channel protein type 1 subunit alpha (Homo sapiens, UniProt P35498). As to the kind of experiment: Inhibition of voltage-gated Na channel 1.1 (unknown origin).

Structures are written as SMILES.

T3 sequence (Q15858 whole entry): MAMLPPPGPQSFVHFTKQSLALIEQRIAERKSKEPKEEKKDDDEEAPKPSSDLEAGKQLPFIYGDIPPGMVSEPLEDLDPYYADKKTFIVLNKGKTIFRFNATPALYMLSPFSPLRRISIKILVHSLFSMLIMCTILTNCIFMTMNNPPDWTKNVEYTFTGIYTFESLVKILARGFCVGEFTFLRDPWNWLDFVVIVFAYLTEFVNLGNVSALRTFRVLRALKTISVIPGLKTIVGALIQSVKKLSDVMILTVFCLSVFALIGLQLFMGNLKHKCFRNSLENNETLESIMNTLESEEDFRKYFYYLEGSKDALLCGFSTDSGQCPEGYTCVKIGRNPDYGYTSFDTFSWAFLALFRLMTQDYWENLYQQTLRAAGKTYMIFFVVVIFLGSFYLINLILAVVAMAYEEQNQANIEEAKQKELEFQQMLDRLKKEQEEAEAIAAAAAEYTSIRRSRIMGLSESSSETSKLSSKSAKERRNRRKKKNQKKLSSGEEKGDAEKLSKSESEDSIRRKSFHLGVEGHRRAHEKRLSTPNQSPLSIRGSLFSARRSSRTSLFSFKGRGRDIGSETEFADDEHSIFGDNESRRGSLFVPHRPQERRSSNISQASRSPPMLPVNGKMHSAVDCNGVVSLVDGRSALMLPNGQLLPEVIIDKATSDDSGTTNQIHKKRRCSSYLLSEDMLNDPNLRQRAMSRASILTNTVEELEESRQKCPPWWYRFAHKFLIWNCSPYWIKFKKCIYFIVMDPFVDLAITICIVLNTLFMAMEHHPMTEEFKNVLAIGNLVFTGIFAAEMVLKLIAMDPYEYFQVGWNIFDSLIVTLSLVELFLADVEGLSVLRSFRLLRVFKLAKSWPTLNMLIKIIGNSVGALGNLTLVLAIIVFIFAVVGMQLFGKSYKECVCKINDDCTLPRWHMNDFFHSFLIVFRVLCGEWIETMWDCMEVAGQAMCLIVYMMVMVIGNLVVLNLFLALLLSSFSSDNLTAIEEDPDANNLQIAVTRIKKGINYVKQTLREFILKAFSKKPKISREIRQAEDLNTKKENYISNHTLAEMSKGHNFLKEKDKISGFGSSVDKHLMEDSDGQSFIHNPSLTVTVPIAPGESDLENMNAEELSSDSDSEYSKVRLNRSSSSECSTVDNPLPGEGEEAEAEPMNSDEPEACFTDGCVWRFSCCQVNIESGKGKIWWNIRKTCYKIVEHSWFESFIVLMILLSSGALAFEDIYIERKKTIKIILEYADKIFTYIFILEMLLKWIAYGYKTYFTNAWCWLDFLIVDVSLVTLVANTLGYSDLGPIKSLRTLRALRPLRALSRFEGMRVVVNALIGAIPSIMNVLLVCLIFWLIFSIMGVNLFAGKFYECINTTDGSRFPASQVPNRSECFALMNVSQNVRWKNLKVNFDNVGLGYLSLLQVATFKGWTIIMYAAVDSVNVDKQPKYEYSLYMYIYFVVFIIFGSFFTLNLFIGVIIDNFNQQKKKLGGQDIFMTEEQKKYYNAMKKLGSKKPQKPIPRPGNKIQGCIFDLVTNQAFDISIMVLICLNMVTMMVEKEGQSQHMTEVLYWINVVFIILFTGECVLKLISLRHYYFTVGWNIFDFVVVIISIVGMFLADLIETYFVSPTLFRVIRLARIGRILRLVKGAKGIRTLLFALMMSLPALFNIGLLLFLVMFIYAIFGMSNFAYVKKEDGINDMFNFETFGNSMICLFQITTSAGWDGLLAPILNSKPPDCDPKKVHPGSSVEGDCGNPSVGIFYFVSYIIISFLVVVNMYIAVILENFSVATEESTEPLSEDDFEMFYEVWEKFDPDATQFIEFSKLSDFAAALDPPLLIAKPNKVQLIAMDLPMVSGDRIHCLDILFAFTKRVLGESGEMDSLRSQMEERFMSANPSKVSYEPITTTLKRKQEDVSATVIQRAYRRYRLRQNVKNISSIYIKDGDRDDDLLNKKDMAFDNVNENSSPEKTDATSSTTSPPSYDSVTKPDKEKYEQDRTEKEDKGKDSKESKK

As to `CC(C)C(=O)Nc1ccc(N(C)C)c(C(=O)N[C@@H](C)c2ccccc2)c1`, the Ratio IC50 in the experiment filed under Homo sapiens [1], in the experiment filed under Homo sapiens [2], in the experiment listed under Homo sapiens [4] and in the experiment filed under Homo sapiens [5] was above 10 throughout. The compound also showed an IC50 in experiment [3] of 0.1 µM.

With `O=C(NCc1cccnc1N1CCOCC1)c1cncc(-c2ccc(OC(F)(F)F)cc2)n1`, the IC50 in experiment [6] was 0.03 µM.

With `CCN(C(C)=O)c1cccc(-c2ccnc3c(C#N)cnn23)c1` [ZALEPLON], the EC50 in [7] was above 1 µM; in experiment [8] it was 1.63 µM; in experiment [9], 0.29 µM; in [10] it was above 1 µM.

In the case of `O=C(NCc1ccc(Cl)c(C(F)(F)F)c1)c1ccc(S(=O)(=O)Nc2ncc(Cl)s2)cc1`, in the experiment filed under Homo sapiens [11], the Ratio IC50 was above 1000. Also, the concentration for half-maximal inhibition (IC50) in [12] was determined as 0.03 µM.

In turn, `N[C@@H](C[C@@H](C/C=C/c1ccc2ccccc2c1)C(=O)O)C(=O)O` had an EC50 at Glutamate receptor 1 above 300 µM.

As to `O=C1[C@@H](N2CC[C@H](c3cc(Cl)cc(Cl)c3)C2)CCN1c1ccc(S(=O)(=O)Nc2nccs2)cc1`, the IC50 in experiment [13] and in experiment [14] was below 2 µM throughout.

On to `COC[C@@H](NC(C)=O)C(=O)NCc1ccccc1` [LACOSAMIDE], for which the IC50 was found to be 0.415 µM in [15], 0.182 µM in [16] and 16 µM in experiment [17].

Turning to `COc1cnc(-c2cccc3c2C[C@H](NC(=O)c2ccc(COCC(F)(F)F)nc2)CO3)cn1`, the half-inhibitory concentration (IC50) in experiment [18] is above 33 µM; in [19] it was 13 µM; in [20] it was 0.066 µM.

Consider `NC(=O)C(c1ccccc1)(c1ccc(F)cc1)c1ccc(F)cc1` [SENICAPOC], for which the IC50 in experiment [21], in [22], in experiment [23], in experiment [24], in [25] and in experiment [26] was above 1 µM each time. Besides, the IC50 in experiment [27], in experiment [28] and in [29] was above 1 µM in each case.

For the origin of these results see ChEMBL document CHEMBL2321869, “Ion channels as therapeutic targets: a drug discovery perspective” (J Med Chem, 2013).
